Assays:
Format in all cases: functional
[1] = system: KM12; test: Cytotoxicity against Homo sapiens (human) KM12 cells assessed as cell growth at 10 uM after 48 hr by SRB assay relative to control; details: KM12, 48 h, read-out: Activity
[2] = system: K562; test: Cytotoxicity against Homo sapiens (human) K562 cells assessed as cell growth at 10 uM after 48 hr by SRB assay relative to control; details: K562, 48 h, read-out: Activity
[3] = system: Photobacterium leiognathi; test: Growth inhibition of Photobacterium leiognathi Sh1 assessed as bio-luminescence at 0.1 mg/ml after 16 to 18 hr by chronic action test relative to control; set-up: scale not given: the % may be the effect or the level left
[4] = system: Photobacterium leiognathi; test: Growth inhibition of Photobacterium leiognathi Sh1 assessed as bio-luminescence at 0.25 mg/ml after 10 min by acute action test relative to control; set-up: scale not given: the % may be the effect or the level left
[5] = system: Photobacterium leiognathi; test: Growth inhibition of Photobacterium leiognathi Sh1 assessed as bio-luminescence at 0.025 mg/ml after 16 to 18 hr by chronic action test relative to control; set-up: scale not given: the % may be the effect or the level left
[6] = system: HT-29; test: Cytotoxicity against Homo sapiens (human) HT-29 cells assessed as cell growth at 10 uM after 48 hr by SRB assay relative to control; details: HT-29, 48 h, read-out: Activity
[7] = system: SR; test: Cytotoxicity against Homo sapiens (human) SR cells assessed as cell growth at 10 uM after 48 hr by SRB assay relative to control; details: read-out: Activity
[8] = system: SW-620; test: Cytotoxicity against Homo sapiens (human) SW620 cells assessed as cell growth at 10 uM after 48 hr by SRB assay relative to control; details: SW-620, 48 h, read-out: Activity
[9] = system: Photobacterium leiognathi; test: Growth inhibition of Photobacterium leiognathi Sh1 assessed as bio-luminescence at 0.025 mg/ml after 10 min by acute action test relative to control; set-up: scale not given: the % may be the effect or the level left
[10] = system: HCT-15; test: Cytotoxicity against Homo sapiens (human) HCT15 cells assessed as cell growth at 10 uM after 48 hr by SRB assay relative to control; details: HCT-15, 48 h, read-out: Activity
[11] = system: MOLT-4; test: Cytotoxicity against Homo sapiens (human) MOLT4 cells assessed as cell growth at 10 uM after 48 hr by SRB assay relative to control; details: MOLT-4, 48 h, read-out: Activity
[12] = system: HL-60(TB); test: Cytotoxicity against Homo sapiens (human) HL-60(TB) cells assessed as cell growth at 10 uM after 48 hr by SRB assay relative to control; details: HL-60, 48 h, read-out: Activity
[13] = system: Photobacterium leiognathi; test: Growth inhibition of Photobacterium leiognathi Sh1 assessed as bio-luminescence at 0.1 mg/ml after 10 min by acute action test relative to control; set-up: scale not given: the % may be the effect or the level left
[14] = system: CCRF-CEM; test: Cytotoxicity against Homo sapiens (human) CCRF-CEM cells assessed as cell growth at 10 uM after 48 hr by SRB assay relative to control; details: read-out: Activity
[15] = system: Photobacterium leiognathi; test: Growth inhibition of Photobacterium leiognathi Sh1 assessed as bio-luminescence at 0.25 mg/ml after 16 to 18 hr by chronic action test relative to control; set-up: scale not given: the % may be the effect or the level left
[16] = Cytotoxicity against Homo sapiens (human) […] cells assessed as cell growth at 10 uM after 48 hr by SRB assay relative to control; details: read-out: Activity
[17] = system: HCT-116; test: Cytotoxicity against Homo sapiens (human) HCT116 cells assessed as cell growth at 10 uM after 48 hr by SRB assay relative to control; details: HCT-116, 48 h, read-out: Activity
[18] = system: HOP-92; test: Cytotoxicity against Homo sapiens (human) HOP92 cells assessed as cell growth at 10 uM after 48 hr by SRB assay relative to control; details: HOP-92, 48 h, read-out: Activity
[19] = system: 786-0; test: Cytotoxicity against Homo sapiens (human) 786-0 cells assessed as cell growth at 10 uM after 48 hr by SRB assay relative to control; details: 786-0, 48 h, read-out: Activity
[20] = system: SF-268; test: Cytotoxicity against Homo sapiens (human) SF268 cells assessed as cell growth at 10 uM after 48 hr by SRB assay relative to control; details: SF-268, 48 h, read-out: Activity
[21] = system: SF-295; test: Cytotoxicity against Homo sapiens (human) SF295 cells assessed as cell growth at 10 uM after 48 hr by SRB assay relative to control; details: SF-295, 48 h, read-out: Activity
[22] = system: MDA-MB-435; test: Cytotoxicity against Homo sapiens (human) MDA-MB-435 cells assessed as cell growth at 10 uM after 48 hr by SRB assay relative to control; details: MDA-MB-435, 48 h, read-out: Activity
[23] = system: HOP-62; test: Cytotoxicity against Homo sapiens (human) HOP62 cells after 48 hr by SRB assay; details: HOP-62, 48 h
[24] = system: U-251; test: Cytotoxicity against Homo sapiens (human) U251 cells assessed as cell growth at 10 uM after 48 hr by SRB assay relative to control; details: U-251, 48 h, read-out: Activity
[25] = system: A549; test: Cytotoxicity against Homo sapiens (human) A549 cells assessed as cell growth at 10 uM after 48 hr by SRB assay relative to control; details: A549, 48 h, read-out: Activity
[26] = system: A498; test: Cytotoxicity against Homo sapiens (human) A498 cells after 48 hr by SRB assay; details: A498, 48 h
[27] = system: BT-549; test: Cytotoxicity against Homo sapiens (human) BT549 cells after 48 hr by SRB assay; details: BT-549, 48 h
[28] = system: OVCAR-3; test: Cytotoxicity against Homo sapiens (human) OVCAR3 cells assessed as cell growth at 10 uM after 48 hr by SRB assay relative to control; details: OVCAR-3, 48 h, read-out: Activity
[29] = system: LOX IMVI; test: Cytotoxicity against Homo sapiens (human) LOXIMVI cells assessed as cell growth at 10 uM after 48 hr by SRB assay relative to control; details: read-out: Activity
[30] = system: PC-3; test: Cytotoxicity against Homo sapiens (human) PC3 cells assessed as cell growth at 10 uM after 48 hr by SRB assay relative to control; details: PC-3, 48 h, read-out: Activity
[31] = system: SNB-75; test: Cytotoxicity against Homo sapiens (human) SNB75 cells after 48 hr by SRB assay; details: SNB-75, 48 h
[32] = system: DU-145; test: Cytotoxicity against Homo sapiens (human) DU145 cells assessed as cell growth at 10 uM after 48 hr by SRB assay relative to control; details: DU-145, 48 h, read-out: Activity
[33] = system: UO-31; test: Cytotoxicity against Homo sapiens (human) UO31 cells after 48 hr by SRB assay; details: UO-31, 48 h
[34] = system: NCI-H460; test: Cytotoxicity against Homo sapiens (human) NCI-H460 cells assessed as cell growth at 10 uM after 48 hr by SRB assay relative to control; details: NCI-H460, 48 h, read-out: Activity

Work on `COc1ccc(-c2nn3c(SCC(=O)Nc4ccccc4F)nc4ccccc4c3nc2=O)cc1` yielded a growth at 10 µM [1] of 51.3%, a growth at 10 µM [2] of 60.2% and an Activity [3] of 96.67%. It also gave an Activity [4] of 40%, an Activity [5] of 100% and a growth at 10 µM [6] of 67.8%. The growth at 10 µM [7] was 48.2%, the growth at 10 µM [8] was 65.6% and the Activity [9] was 90%. The growth at 10 µM [10] was 92.2%, the growth at 10 µM [11] was 52.7% and the growth at 10 µM [12] was 67.9%. The Activity [13] was 84%, the growth at 10 µM [14] was 67.5% and the Activity [15] was 100%. For the same compound, the growth at 10 µM [16] was 67.6% and the growth at 10 µM [17] was 56.7%.
Compound `O=C(CSc1nc2ccccc2c2nc(=O)c(-c3ccccc3)nn12)NCc1ccccc1` has a growth at 10 µM [18] of 24.6%, a growth at 10 µM [1] of 12% and a growth at 10 µM [2] of 29.7%. For the same compound, the Activity [3] was 113.6%, the growth at 10 µM [19] was -7.56% and the growth at 10 µM [20] was 53.1%. It also gave a growth at 10 µM [21] of 55.7%, a growth at 10 µM [22] of 21.7% and a GI50 [23] of 2.75 µM. For the same compound, the LC50 [23] was 30.2 µM, the TGI ([23]; read-out: pTGI (converted)) was 7.08 µM and the Activity [4] was 100%. It also gave an Activity [5] of 84.9%, a growth at 10 µM [24] of 30.1% and a growth at 10 µM [25] of 12.8%. It also gave a GI50 [26] of 0.0269 µM, an LC50 [26] greater than 100 µM and a TGI ([26]; read-out: pTGI (converted)) of 37.2 µM. For the same compound, the growth at 10 µM [7] was 41.9%, the GI50 [27] was 3.02 µM and the LC50 [27] was greater than 100 µM. The TGI ([27]; read-out: pTGI (converted)) was 7.76 µM, the growth at 10 µM [28] was 13.7% and the growth at 10 µM [8] was 19.4%. The Activity [9] was 125%, the growth at 10 µM [29] was 29.5% and the growth at 10 µM [30] was 18.1%. For the same compound, the GI50 [31] was 2.19 µM, the LC50 [31] was 43.7 µM and the TGI ([31]; read-out: pTGI (converted)) was 13.5 µM. It also gave a growth at 10 µM [11] of 43%, a growth at 10 µM [32] of 21.8% and a growth at 10 µM [12] of 51.6%. It also gave a GI50 [33] of 2.57 µM, an LC50 [33] greater than 100 µM and a TGI ([33]; read-out: pTGI) greater than 100 µM. It also gave a growth at 10 µM [34] of 1.57%, an Activity [13] of 112.5% and a growth at 10 µM [14] of 37.9%. For the same compound, the Activity [15] was 78.2%, the growth at 10 µM [16] was 44.5% and the growth at 10 µM [17] was 48.6%.
